According to patent US20110237549A1, “MODULATORS OF RNA RIBOSWITCHES” (MEMORIAL SLOAN KETTERING CANCER CENTER, priority 2008, published 2011):
Values belong to the compound of their own block, whether it stands above or below them.

Legend:
[1] = system: 265-nucleotide full-length T. maritima lysine riboswitch; assay: primer extension assay (reverse transcriptase pausing at A169); format: biochemical, Thermotoga maritima
From the text: FIG. 39. Interactions of lysine and its analogs with the T. maritima lysine riboswitch studied by primer extension. a and b, Representative gels of riboswitch titration by lysine (a) and AEC (b). Reverse transcriptase (RT) pauses three nucleotides prior to the j unction at A169 in the context of the full-length riboswitch if the riboswitch-binding ligand is present in the reaction mixture. c, Representative titration experiments used for calculations of the ligand concentration (FIG. 4c) at which RT pausing is half-maximally attained. The experimental data points for lysine and AEC are from panels (a) and (b). The data were fitted to equation (1), which is based on the equation describing a bimolecular equilibrium, by the nonlinear least squares analysis. In the equation
θ is the fraction of RT pausing, No and Lo are RNA and ligand concentrations, respectively, and P50 is the apparent ligand concentration at which RT pausing is half-maximally attained. The P50 value for the lysine-induced RT pausing 5.50±0.53/−1M (mean±s.d.) (n=2) is similar to the Kd value 4.03±0.34/−1M (mean±s.d.) (n=2) determined by the equilibrium dialysis assay. The relative differences between the P50 values for lysine and its analogs are in overall agreement with the relative differences obtained from the Kd values for lysine and its analogs determined for the B. subtilis lysine riboswitch in ref. 5.
Primer extension experiments were performed using 265-nucleotide full-length riboswitch. The 32P-labelled 13-mer DNA oligonucleotide (100,000 c.p.m.), complementary to nucleotides 253-265 of RNA, was annealed to the 39 end of RNA (final RNA concentration […] in the assay). Primer extension was conducted in […] volume with 40 U of moloney murine leukaemia virus reverse transcriptase in 50 mM Na-HEPES, pH 7.9, 2 mM MgCl2, and variable concentrations of NaCl and KCl (FIG. 4), with or without a tenfold excess of lysine over RNA. After 30 min incubation at 37° C., the reactions were precipitated with ethanol, dissolved in loading buffer and analysed by 10% PAGE. Efficiency of lysine-induced pausing of reverse transcriptase at nucleotide A169 was quantified using FLA-7000 PhosphorImager and Image Gauge software (Fujifilm). Band intensities from independent experiments were averaged after gel-loading correction, background subtraction and normalization. The primer extension assay in the presence of lysine analogues was performed in 50 mM Na-HEPES, pH 7.9, 2 mM MgCl2, 50 mM KCl, and lysine analogues in the range 1028-1022 M. The data were fitted using a bimolecular equilibrium equation (Supplementary FIG. 12) and the resulting P50 values are reported in FIG. 4c. Reverse transcriptase sequencing reactions were run in parallel.

[2] = system: mRNA that contains the FMN riboswitch; conditions: used at a 17-fold higher concentration than FMN; cited from earlier work
[3] = biological target: 220-nucleotide full-length F. nucleatum FMN riboswitch; assay: fluorescent binding assay with the 220-nucleotide full-length F. nucleatum impX FMN riboswitch; parameters: species or system Fusobacterium nucleatum; conditions: 220-nucleotide RNA; read-out: Kd (mean±s.d.)
[4] = system: 112-nucleotide F. nucleatum FMN riboswitch; assay: fluorescent binding assay with the 112-nucleotide F. nucleatum FMN riboswitch; conditions: for Kd: read-out: dissociation constants (mean s.d.), 112-nucleotide riboswitch, 2 mM MgCl2 and 100 mM KCl
[5] = system: T. maritima lysine riboswitch; assay: equilibrium dialysis, T. maritima lysine riboswitch; format: binding, Thermotoga maritima
Experimental: (§1) The assay was performed as described in Sudarsan, et al., An mRNA structure in bacteria that controls gene expression by binding lysine, Genes Dev. 17:2688-2697 (2003) using 5 kDa DispoEquilibrium DIALYZERS (Harvard Apparatus). In brief, […] RNA (from 0.001 to 20 mM) in the in-line probing buffer was placed in chamber A of the dialyser and equilibrated for 16 h at room temperature against chamber B containing […] 3H-labelled lysine (1 nM; 6,000 c.p.m.) in the same buffer. The amount of bound lysine was calculated by subtracting the radioactivity counts of chamber B from chamber A. The data were fitted using a bimolecular equilibrium equation, assuming that the free lysine concentration is negligible.

[6] = system: B. subtilis lysine riboswitch; assay: equilibrium dialysis, B. subtilis lysine riboswitch; format: binding; conditions: Bacillus subtilis riboswitch
Experimental: as §1

[7] = system: 143-nucleotide B. subtilis FMN riboswitch; assay: fluorescent binding assay with the 143-nucleotide B. subtilis FMN riboswitch; conditions: Bacillus subtilis riboswitch
Experimental: FIG. 9. The metabolite-sensing domain of the B. subtilis FMN riboswitch. a, The sequence of the 143-nucleotide fragment of B. subtilis riboswitch 5 is presented as a secondary structure schematic, which is based on the consensus secondary structure of the FMN riboswitches with small corrections from the three-dimensional structure of the F nucleatum riboswitch. b, Binding of FMN and its analogs to the 143-nucleotide B. subtilis FMN riboswitch. All measurements were performed using fluorescent assay.

Structure (SMILES): NCCSC[C@H](N)C(=O)O [AEC, S-(2-aminoethyl)-L-cysteine]
binding to the riboswitch relative to lysine in primer extension [1]: weaker binding

Structure (SMILES): Cc1cc2nc3c(=O)[nH]c(=O)nc-3n(C[C@H](O)[C@H](O)[C@H](O)COP(=O)(O)OP(=O)(O)OC[C@H]3O[C@@H](n4cnc5c(N)ncnc54)[C@H](O)[C@@H]3O)c2cc1C [FAD, flavin adenine dinucleotide]
inhibition of transcription in vitro [2]: inhibited

Structure (SMILES): Cc1cc2nc3c(=O)[nH]c(=O)nc-3n(C[C@H](O)[C@H](O)[C@H](O)COP(=O)(O)O)c2cc1C [FMN, flavin mononucleotide]
Kd [3]: 0.134 ± 0.0139 µM | binding to the riboswitch in the presence of cobalt hexamine ([4]; cobalt hexamine in place of Mg2+): equally well | reduction of binding affinity in the presence of iridium hexamine ([4]; iridium hexamine in place of Mg2+): about 15 fold

Structure (SMILES): N=C(N)NCCCC[C@H](N)C(=O)O [L-homoarginine]
binding to the riboswitch relative to lysine in primer extension [1]: weaker interactions than lysine

Structure (SMILES): Cc1cc2nc3c(=O)[nH]c(=O)nc-3n(C)c2cc1C [lumiflavin]
effect of additional removal of the ribityl moiety on binding affinity ([4]; compared with riboflavin): reduces binding affinity to only a very small extent | Kd [4]: 59 µM

Structure (SMILES): NCCCC[C@H](N)C(=O)O [lysine, L-lysine]
lysine binding affinity when K+ was omitted or replaced by Na+ [5]: significantly decreased | lysine binding affinity when K+ was omitted or replaced by Na+ [6]: significantly decreased | decrease of reverse transcriptase pause after replacement of K+ by Na+ ([1]; in the presence of lysine): 33 fold

The remaining lines, values ahead:

binding to the riboswitch relative to lysine in primer extension [1]: weaker binding
Structure (SMILES): NCCOC[C@H](N)C(=O)O [L-4-oxalysine]

binding to the riboswitch relative to lysine in primer extension [1]: weaker interactions than lysine
Structure (SMILES): CC(=N)NCCCC[C@H](N)C(=O)O [N6-1-iminoethyl-L-lysine]

decrease of binding affinity compared with binding of FMN [7]: about 1,000 fold | decrease of binding affinity compared with binding of FMN ([4]; F. nucleatum riboswitch): about 1,000 fold | Kd [4]: 39.8 µM
Structure (SMILES): Cc1cc2nc3c(=O)[nH]c(=O)nc-3n(C[C@H](O)[C@H](O)[C@H](O)CO)c2cc1C [riboflavin]
